Active and inactive are the calls of the source. The calls are words filed in the database; no cut-off is given here.

The test system of assay [1] is Chorioallantoic membrane. Nature of the assay: Antiangiogenic activity in chicken chorioallantoic membrane at 200 uM after 48 hrs by microscopic analysis. The class given is functional. As to conditions: Gallus gallus.
The subject of a further assay is 769-P. Nature of the assay: Cytotoxicity against human 769-P cells by MTT assay. The class given is functional, cell-based. For orientation: Tetrazolium assays rely on reduction of a dye to a coloured formazan, in cell work by metabolically active cells.
A short description of assay [2]: Cytotoxicity against human ECA109 cells by MTT assay. As to conditions: ECa-109. The format is functional, cell-based.
For another assay, the system named is HepG2. Nature of the assay: Cytotoxicity against human HepG2 cells by MTT assay. The class given is functional, cell-based.
Assay [3] in a line: Cytotoxicity against mouse LLC cells by MTT assay. The class given is functional, cell-based. The note with it: Lewis lung carcinoma.
For another assay, the system named is CWR22R. Nature of the assay: Cytotoxicity against human 22Rv1 cells by MTT assay. The format is functional, cell-based.
The subject of a further assay is HT-29. Nature of the assay: Cytotoxicity against human HT-29 cells by MTT assay. The class given is functional, cell-based.
Assay [4] in a line: Cytotoxicity against human SKOV3 cells by MTT assay. As to conditions: SK-OV-3. The class given is functional, cell-based.
The test system of a further assay is MCF7. The assay can be described thus: Cytotoxicity against human MCF7 cells by MTT assay. The class given is functional, cell-based.
Assay [5] can be described thus: Cytotoxicity against human BGC823 cells by MTT assay. The note with it: BGC-823. The format is functional, cell-based.
The subject of the next assay is A-375. The assay can be described thus: Cytotoxicity against human A375 cells by MTT assay. The format is functional, cell-based.
Assay [6] has as its system Chorioallantoic membrane. Nature of the assay: Antiangiogenic activity in chicken chorioallantoic membrane at 50 to 200 uM after 48 hrs by microscopic analysis. The class given is functional. The note with it: Gallus gallus.

Regarding `COc1ccc(/C=C\c2cc(OC)c(OC)c(OC)c2)cc1OP(=O)(O)O`, the inhibition entry in the assay on Chorioallantoic membrane [1] was “Active”.

What is called IC50 is the concentration needed to halve the response being measured. High values mean weaker potency in that assay, low ones greater potency in that assay. For the molecule `COc1ccc(-c2nc(CN3CCN(Cc4cc5c6ccccc6n(C)c5c(-c5ccc(OC)cc5)n4)CC3)cc3c4ccccc4n(C)c23)cc1`, the IC50 is more than 100 µM in the assay on 769-P; 68.5 µM in assay [2]; 55 µM in the assay on HepG2; 69 µM in assay [3]; 47.8 µM in the assay with CWR22R; 29 µM in the assay on HT-29. The IC50 in assay [4] is 57.8 µM; with MCF7, more than 100 µM; in assay [5] it was 56.3 µM; with A-375 it was 45.7 µM.

In the case of `CCCCn1c2ccccc2c2cc(CN3CCN(Cc4cc5c6ccccc6n(CCCC)c5cn4)CC3)ncc21`, the IC50 in the assay with 769-P came to 38.2 µM; in assay [2], 26.4 µM; in the assay on HepG2 it was 15.2 µM; in assay [3] it was 2.36 µM; with CWR22R it was 43.9 µM; in the assay on HT-29, 17.1 µM. The 50% inhibitory concentration (IC50) in assay [4] turned out to be 11.3 µM; with MCF7, 29.2 µM; in [5], 9.52 µM; in the assay on A-375, 16.8 µM.

Take `COc1cc(-c2nc(CN3CCN(Cc4cc5c6ccccc6n(CCCc6ccccc6)c5c(-c5cc(OC)c(OC)c(OC)c5)n4)CC3)cc3c4ccccc4n(CCCc4ccccc4)c23)cc(OC)c1OC`: the IC50 (with 769-P; in assay [2]; in the assay on HepG2; in assay [3]; in the assay on CWR22R; with HT-29) was more than 100 µM in each case. Also, the IC50 (in assay [4]; in the assay with MCF7; in assay [5]; in the assay on A-375) was more than 100 µM each time.

As for `Cc1nc(CN2CCN(Cc3cc4c5ccccc5n(Cc5cccc(Cl)c5)c4c(C)n3)CC2)cc2c3ccccc3n(Cc3cccc(Cl)c3)c12`, the IC50 turned out to be 45.8 µM with 769-P; 57.6 µM in assay [2]; 38.1 µM in the assay with HepG2; 12 µM in assay [3]; 40.8 µM in the assay with CWR22R; 25.2 µM in the assay with HT-29. Further, the IC50 in assay [4] was determined as 51.4 µM; in the assay on MCF7 it was 43.7 µM; in assay [5], 40.8 µM; in the assay on A-375 it was 32.4 µM.

Take `CCn1c2ccccc2c2cc(CN3CCN(Cc4cc5c6ccccc6n(CC)c5c(-c5ccc(OC)c(OC)c5)n4)CC3)nc(-c3ccc(OC)c(OC)c3)c21`: the IC50 turned out to be 61.1 µM with 769-P; 68.5 µM in assay [2]; 27.2 µM in the assay on HepG2; 9.68 µM in [3]; 42.3 µM with CWR22R; 34.3 µM in the assay on HT-29. Moreover, the IC50 in assay [4] came out at 32.7 µM; with MCF7, 27.3 µM; in [5], 19.8 µM; in the assay on A-375 it was 37.3 µM.

As to `Cc1nc(CN2CCN(Cc3cc4c5ccccc5n(CC(C)C)c4c(C)n3)CC2)cc2c3ccccc3n(CC(C)C)c12`, the IC50 with 769-P was 12.7 µM; in assay [2], 14.3 µM; in the assay on HepG2, 9.66 µM; in [3], 7.68 µM; in the assay on CWR22R it was 12.5 µM; in the assay on HT-29, 11.3 µM. Moreover, the IC50 in assay [4] worked out at 16 µM; with MCF7, 7.16 µM; in assay [5] it was 10.8 µM; in the assay on A-375 it was 13 µM. In the assay on Chorioallantoic membrane [6], the inhibition result is “Active”.
